Laboratory results from patent US20150291645A1, “ISOACTEOSIDE DERIVATIVE AND USE THEREOF” (Sinphar Pharmaceutical Co., Ltd., priority 2014, published 2015).

Legend:
Aβ40 = Aβ40 (Homo sapiens, UniProt P05067); experiment: Aβ40 aggregation, thioflavin T assay; format: biochemical; conditions: for inhibition at 20 µM / inhibition at 200 µM: 4 hours 37° C.; for inhibition at 20 µM: FIG. 3A; for inhibition at 200 µM: FIG. 3B; for inhibit Aβ40 accumulation (ThT assay): summary of Experimental example 3
Experimental: Aβ40 aggregation: The Aβ40 stock was redissloved in DMSO to 10 mg/mL. Each group included 0.5 μL of 10 mg/mL Aβ40 and 4.5 μL of the testing sample diluted with Dulbecco's Phosphate-Buffered Saline (D-PBS). The concentrations of Sample 1 were 10 μM and 100 μM, and the concentrations of Sample 2-8 were 20 μM and 200 μM. The total reaction volume was 5 μL, and each concentration of each sample included 6 groups. After incubating in a 37° C. incubator for 4 hours, 200 μL of thioflavin T working solution (ThT working solution) was added and mixed thoroughly, which the thioflavin T working solution was 10 μM of thioflavin T dissolving in potassium phosphate buffer (PB buffer, pH 6.0). 200 μL of the mixture was placed into a black, clear bottom 96-well plate, and the ThT fluorescence intensity (Ex: 440 nm, Em: 482 nm) was measured to determine the level of Aβ40 aggregation. This experimental example used thioflavin T assay (ThT assay) to evaluate the level of Aβ40 aggregation. Since ThT and Congo red derivatives can form bonds with aggregated form of Aβ protein, the level of Aβ aggregation is higher when the amount of bonded ThT is more. By detecting the variation in the amount of ThT, the change in the level of Aβ aggregation can be estimated. The value of not reacting with any sample (i.e. only containing 0.5 μL of Aβ40 and 4.5 μL of D-PBS, which the final concentration of Aβ40 was 1 mg/mL) was a control and set to 100%, and isoacteoside (IsoA) was used as a positive control. The values of the testing samples were compared to the control and expressed in percentage, and the experiment results are shown in FIGS. 3A-3B. The results shown in FIGS. 3A-3B were mean±standard error of six experimental groups (n=6), and the statistical differences between the control and the testing samples were analyzed by Dunnett's multiple comparison test, which “*” represented p<0.05; “**” represented p<0.01; “***” represented p<0.001; and “****” represented p<0.0001.
(§1) The concentration of Sample 1 was 10 μM, the concentration of Samples 2-9 was 20 μM, and the concentration of IsoA was 10 μg/mL. The measured value of the control without adding any sample was set to 100%, and other values were adjusted accordingly. […] The concentration of Sample 1 was 100 μM, the concentration of Samples 2-9 was 200 μM, and the concentration of IsoA was 100 μg/mL. The measured value of the control without adding any sample was set to 100%, and other values were adjusted accordingly.

Aβ42 = biological target: T1, Aβ42 (Homo sapiens, UniProt P05067); experiment: Aβ42 aggregation, thioflavin T assay; format: biochemical; conditions: for inhibition at 20 µM / inhibition at 200 µM: 30 minutes 37° C.; for inhibition at 20 µM: FIG. 4A; for inhibition at 200 µM: FIG. 4B; for inhibit Aβ42 accumulation (ThT assay): summary of Experimental example 4
T1 construct: Aβ42 was redissloved in DMSO to 2.5 mg/mL
Experimental: Experimental method: Aβ42 was redissloved in DMSO to 2.5 mg/mL, and Samples 1-9 were diluted with D-PBS to appropriate concentrations. The concentrations of Sample 1 were 10 μM and 100 μM, the concentrations of Sample 2-9 were 20 μM and 200 μM, and the concentrations of IsoA were 10 μg/mL and 100 μg/mL. Each reaction included 1 μL of Aβ42 (final concentration was 0.25 mg/mL) and 9 μL of the testing sample, which each concentration of each sample included 8 groups, and was placed at 37° C. reacting for 30 minutes after thoroughly mixed. 200 μL of Thioflavin T working solution was added and mixed thoroughly after the reaction completed, 200 μL of the which was placed into a black, clear bottom 96-well plate, and the ThT fluorescence intensity (Ex: 440 nm, Em: 482 nm) was measured to determine the level of Aβ42 aggregation. The value of not reacting with any sample (i.e. only containing 1 μL of Aβ42 and 9 μL of D-PBS, which the final concentration of Aβ42 was 0.25 mg/mL) was a control and set to 100%, and isoacteoside (IsoA) was used as a positive control. The values of the samples were compared to the control and expressed in percentage. The experiment results are shown in FIGS. 4A-4B, which show mean±standard error of eight experimental groups (n=8), and the statistical differences between the control and the testing samples were analyzed by Dunnett's multiple comparison test, which “*” represented p<0.05; “**” represented p<0.01; “***” represented p<0.001; and “****” represented p<0.0001.
as §1, with “μg/mL. The level of Aβ42 accumulation was measured by ThT assay, which the measured value” for “μg/mL. The measured value”

[1] = system: Human retinal pigment epithelium cells (ARPE-19); experiment: Protection of ARPE-19 cells against tert-butyl hydroperoxide oxidative damage (MTT); format: cell-based; conditions: 24 hours; for cell viability compared to the control / inhibition of human retinal pigment epithelium cell death: with tBHP, Sample 2 at 6.25, 12.5, 25 μM, Sample 8 at 8.75, 17.5, 35 μM, FIGS. 6A-6B
Experimental: Human retinal pigment epithelium cells (ARPE-19) were incubated in a DMEM/F12 cell culture medium (Life Technologies) containing 10% of fetal bovine serum (FBS), and were passaged using a 96-well plate after the cell concentration reached 90% full, which each well was seeded with 4.5×10^3 cells. Next day, Samples 2 and 8 were diluted with dimethyl sulfoxide (DMSO) to about 200 times of test concentration, and after that, appropriate amount of DMEM/F12 cell culture medium containing 5% fetal bovine serum was added and diluted to twice test concentration. Then, the resultant was mixed with 0.2 mM of tert-butyl hydroperoxide (tBHP, Sigma) in equal proportions to reach the test concentration (containing 0.5% of dimethyl sulfoxide). The diluted sample was added to the plate with the cells, which was placed in an incubator reacted for 24 hours, and the cell viability was analyzed by MTT solution. The absorbance was measured at a wavelength of 570 nm, and the cells not being treated by the medicine was a control, and the average absorbance of which was set to 100%. The cell viability of the cells being treated by the medicine was calculate by the following formula based on the measured absorbance:
Cell viability=(absorbance of the experimental group/average absorbance of the control)×100%.
The experiment results are shown in FIGS. 6A-6B, which show mean±standard error of six experimental groups (n=6). The statistical differences between damaging group (i.e. accepting damaging medicine, and no protective medicine) and testing medicine groups and the control group (Control, containing 0.5% of DMSO) were analyzed by Dunnett's multiple comparison test, which “*” represented p<0.05; “**” represented p<0.01; “***” represented p<0.001; and “****” represented p<0.0001.

[2] = system: Aβ40 in SH-SY5Y-APP695 cell medium; experiment: Inhibiting Aβ40 accumulation in culture medium of SH-SY5Y-APP695 cells (Human Aβ1-40 immunoassay, with MTT); format: cell-based; conditions: for effects of inhibiting Aβ40 accumulation: preliminary screening at lower concentration (10 and 20 μM), 24 hours
Experimental: Experimental method: Human neuroblastoma cell (SH-SY5Y-APP695), which expresses Swedish APP695 mutation, was incubated in a 3.5-cm culture dish until the cell concentration reached 90% full. When passage, each well of a 24-well plate was seeded with 4×10^5 cells. The culture medium was replaced with 300 μL of chemical-defined medium, which is a DMEM/F12 medium including 5 mM of Hepes buffer, 0.6% of glucose, 3 mM of NaHCO3, […], 100 μg/mL of transferrin, 20 nM of progesterone, 60 μM putrescine, 30 nM of sodium selenite, and 2 μg/mL of heparin, the next day. 3 μL of the testing sample was added into each well, and each concentration of each sample included 4 groups. After the cells were placed in an incubator (37° C., 5% CO2) and treated with the samples for 24 hours, the culture medium was collected and analyzed the amount of Aβ40 in the culture medium after treated by the samples through Human Aβ1-40 Immunoassay kits (Cat.KHB3482, Life Technologies). The cells treated by the samples were analyzed by MTT assay to evaluate the toxicity to the cells caused by sample treatment.
The testing concentrations of Sample 1 were 5 μM and 10 μM, and the testing concentrations of Samples 2-8 were 10 μM and 20 μM. The amount of Aβ40 in a SH-SY5Y-APP695 cell medium that there was no sample added as a control and set to 100%, and the amounts of Aβ40 in the medium after respectively treated by the testing samples were compared to the control and expressed in percentage. β-secretase inhibitor (β-SI) was used as a positive control. The experiment results are shown in FIGS. 1A-1D, which FIGS. 1A and 1C are result diagrams of the samples in inhibiting Aβ40 accumulation, and FIGS. 1B and 1D are result diagrams of the cell viability after treated by the samples. The results shown in FIGS. 1A-1D are mean±standard error of four experimental groups (n=4), and the statistical differences between the control and the testing samples were analyzed by Dunnett's multiple comparison test, which “*” represented p<0.05; “**” represented p<0.01; “***” represented p<0.001; and “****” represented p<0.0001.
Based on the experiment results of Experimental example 1, Sample 3, 4, and 6 having efficacy of inhibiting Aβ40 accumulation were selected. The testing concentrations of the samples were increased to 20, 50, and 100 μM, and were experimented using the method of Experimental example 1. FIG. 2A is a result diagram of the samples in inhibiting Aβ40 accumulation, and FIG. 2B is a result diagram of the cell viability after treated by the samples. The results shown in FIGS. 2A-2B are mean±standard error of four experimental groups (n=4), and the statistical differences between the control and the testing samples were analyzed by Dunnett's multiple comparison test, which “*” represented p<0.05; “**” represented p<0.01; “***” represented p<0.001; and “****” represented p<0.0001.

β-amyloid peptides (Aβ) = conditions: position of the caffeoyl group (sixth vs fourth), WO 2011/157059 A1; cited from earlier work
[3] = summary of Experimental examples 1 and 2

T1 sequence (P05067 672-713 limits assumed): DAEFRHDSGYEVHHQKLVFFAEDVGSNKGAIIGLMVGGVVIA
Chain of Aβ40 (P05067 672-711 limits assumed): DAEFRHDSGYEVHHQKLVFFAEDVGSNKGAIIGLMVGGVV

SMILES	inhibition at 20 µM (Aβ40) [%]	inhibition at 200 µM (Aβ40) [%]	inhibit Aβ40 accumulation (ThT assay) (Aβ40)	inhibition at 20 µM (Aβ42) [%]	inhibit Aβ42 accumulation (ThT assay) (Aβ42)	effects of inhibiting Aβ40 accumulation ([2]; FIGS. 1A-1D)	inhibit Aβ40 formation in cell [2, 3]	other results
CC(=O)Oc1ccc(/C=C/C(=O)OCC2OC(OCCc3ccc(Cl)cc3)C(OC(C)=O)C(OC(C)=O)C2OC(C)=O)cc1OC(C)=O (stereo not drawn) [Sample 2]	~20	~20	could effectively inhibit	~20	could effectively inhibit			inhibition at 200 µM (Aβ42): ~40%; cell viability compared to the control [1]: even better then the control; inhibition of human retinal pigment epithelium cell death [1]: could be significantly inhibited
O=C(/C=C/c1ccc(OCc2ccccc2)c(OCc2ccccc2)c1)OCC1OC(OCCc2ccccc2)C(O)C(O)C1O (stereo not drawn) [Sample 3]						had effects of inhibiting Aβ40 accumulation	could inhibit Aβ40 formation in cell	inhibition at 20 µM ([2]; Homo sapiens, 20 μM, condition of not affecting the cytotoxicity, FIGS. 2A-2B): ~20%; comparison among samples, inhibiting Aβ40 accumulation ([2]; preliminary screening, FIGS. 1A-1D): had the best result of inhibiting Aβ40 accumulation
O=C(/C=C/c1ccc(O)c(O)c1)OCC1OC(OCCc2ccccc2)C(O)C(O)C1O (stereo not drawn) [Sample 4]	~30	~20	could effectively inhibit	~50	could effectively inhibit	had effects of inhibiting Aβ40 accumulation	could inhibit Aβ40 formation in cell	effect of increasing the sample concentration on inhibiting Aβ accumulation ([2]; 20, 50 and 100 μM, FIGS. 2A-2B): could not further enhance the efficacy of inhibiting Aβ accumulation; inhibition at 200 µM (Aβ42): ~70%
O=C(/C=C/c1ccc(OCc2ccccc2)c(OCc2ccccc2)c1)OCC1OC(OCCc2cccc(OCc3ccccc3)c2)C(O)C(O)C1O (stereo not drawn) [Sample 6]						had effects of inhibiting Aβ40 accumulation	could inhibit Aβ40 formation in cell	inhibition at 50 µM ([2]; Homo sapiens, 50 μM, condition of not affecting the cytotoxicity, FIGS. 2A-2B): ~40%; comparison among samples, Aβ40 formation in cell [2, 3]: had the best result
O=C(/C=C/c1ccc(O)c(O)c1)OCC1OC(OCCc2ccc(OCc3ccccc3)cc2)C(O)C(O)C1O (stereo not drawn) [Sample 8]	~30	≤ 70	could effectively inhibit	~60	could effectively inhibit			comparison among samples, Aβ40 accumulation (ThT assay) (Aβ40; summary): had the best result; comparison among samples, Aβ42 accumulation (ThT assay) (Aβ42; summary): had the best result; cell viability compared to the control [1]: even better then the control; inhibition of human retinal pigment epithelium cell death [1]: could be significantly inhibited
C[C@@H]1O[C@@H](O[C@@H]2[C@@H](O)[C@H](OCCc3ccc(O)c(O)c3)O[C@H](CO)[C@H]2OC(=O)/C=C/c2ccc(O)c(O)c2)[C@H](O)[C@H](O)[C@H]1O [acteoside]								activity of inhibiting β-amyloid peptides (Aβ) accumulation (β-amyloid peptides (Aβ)): the activity decreased
CC(C)(C)OO [tBHP, tert-butyl hydroperoxide, reference compound]								cell death ([1]; tBHP alone (0.2 mM mixed in equal proportions)): 30%-40%
